Experimental data taken from patent publication US20140309210A1, “INDAZOLE COMPOUNDS, COMPOSITIONS AND METHODS OF USE THEREOF” (Genentech, Inc., priority 2011, published 2014).

Target: T1, purified ITK (Invitrogen PV3875) (Homo sapiens, UniProt Q08881)
T1 construct: purchased Invitrogen PV3875
T1 sequence (Q08881 1-620): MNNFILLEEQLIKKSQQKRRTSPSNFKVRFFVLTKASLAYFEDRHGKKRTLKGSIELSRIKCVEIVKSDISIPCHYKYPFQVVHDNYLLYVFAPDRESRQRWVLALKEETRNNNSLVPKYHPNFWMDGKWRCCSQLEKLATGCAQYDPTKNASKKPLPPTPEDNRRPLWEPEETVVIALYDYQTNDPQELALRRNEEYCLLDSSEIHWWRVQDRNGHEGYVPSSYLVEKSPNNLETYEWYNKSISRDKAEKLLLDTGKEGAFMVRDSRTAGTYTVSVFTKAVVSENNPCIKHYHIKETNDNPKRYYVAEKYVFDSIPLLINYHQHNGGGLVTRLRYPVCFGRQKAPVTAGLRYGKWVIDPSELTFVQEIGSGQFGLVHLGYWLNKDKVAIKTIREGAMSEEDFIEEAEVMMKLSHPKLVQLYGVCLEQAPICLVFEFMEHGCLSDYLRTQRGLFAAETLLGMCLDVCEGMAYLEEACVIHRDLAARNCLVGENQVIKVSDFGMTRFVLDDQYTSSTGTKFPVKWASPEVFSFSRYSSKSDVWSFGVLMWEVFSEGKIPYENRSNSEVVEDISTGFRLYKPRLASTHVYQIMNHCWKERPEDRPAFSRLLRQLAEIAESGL
Test: ITK peptide phosphorylation assay (Caliper LabChip or LCMS)
Assay type: biochemical
Procedure, shortened: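 Ki values come from Morrison quadratic fits of activity versus inhibitor concentration, adjusted for ATP-competitive inhibition against ATP/Km,app. Substrate and phosphopeptide from purified ITK reactions were resolved either microfluidically (Caliper, EDTA stop) or by LC-MS MRM (TCA stop).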

[1] = Table 2, Examples 1-140, class symbols
[2] = Table 3, specific values for certain examples

| Compound | Ki (Table 1, Examples 141-279) | Ki [1] | Ki [2] |
| --- | --- | --- | --- |
| CN(CCO)c1nc(Cn2cc(NC(=O)c3n[nH]c4cc(-c5cn[nH]c5)ccc34)cn2)cs1 [Example 141, N-[1-[[2-[2-hydroxyethyl(meth-yl)amino]thiazol-4-yl]methyl]pyrazol-4-yl]-6-(1H-pyrazol-4-yl)-1H-indazole-3-carboxamide] | 2.8 nM | – | – |
| O=C(Nc1cnn(Cc2ccc(F)c(F)c2)c1)c1n[nH]c2ccccc12 [Example 68, N-(1-(3,4-difluorobenzyl)-1H-pyrazol-4-yl)-1H-indazole-3-carboxamide] | – | 1 to 100 nM | – |
| O=C(Nc1cnn(Cc2cccc(CNCCO)c2)c1)c1n[nH]c2ccccc12 [Example 96, N-(1-(3-((2-hydroxyethylamino)methyl)benzyl)-1H-pyrazol-4-yl)-1H-indazole-3-carboxamide] | – | 1 to 100 nM | 38.7 nM |
| N#Cc1ccc2c(C(=O)Nc3cnn(Cc4ccccc4)c3)n[nH]c2c1 [Example 206, N-(1-benzylpyrazol-4-yl)-6-cyano-1H-indazole-3-carboxamide] | 129 nM | – | – |
| COc1ccc(-c2ccc3c(C(=O)Nc4cnn(Cc5cccc(C#N)c5)c4)n[nH]c3c2)cn1 [Example 117, N-(1-(3-cyanobenzyl)-1H-pyrazol-4-yl)-6-(6-methoxypyridin-3-yl)-1H-indazole-3-carboxamide] | – | 1 to 100 nM | – |
| O=C(Nc1cnn(Cc2csc(-c3cccs3)n2)c1)c1n[nH]c2cc(-c3cn[nH]c3)ccc12 [Example 23, 6-(1H-Pyrazol-4-yl)-1H-indazole-3-carboxylic acid [1-(2-thiophen-2-yl-thiazol-4-ylmethyl)-1H-pyrazol-4-yl]-amide] | – | 1 to 100 nM | – |
| COc1cncc(-c2ccc3c(C(=O)Nc4cnn(Cc5cccnc5)c4)n[nH]c3c2)c1 [Example 215, 6-(5-methoxy-3-pyridyl)-N-[1-(3-pyridylmethyl)py-razol-4-yl]-1H-indazole-3-carboxamide] | 17.2 nM | – | – |
| O=C(Nc1cnn(Cc2ccccn2)c1)c1n[nH]c2cc(-c3cn[nH]c3)ccc12 [Example 220, 6-(1H-pyrazol-4-yl)-N-[1-(2-pyridylmethyl)py-razol-4-yl]-1H-indazole-3-carboxamide] | 2.93 nM | – | – |
| CN1CCC(Cn2cc(NC(=O)c3n[nH]c4cc(-c5cn[nH]c5)ccc34)cn2)C1 (stereo not drawn) [Example 254, N-[1-[(1-methylpyrrolidin-3-yl)methyl]pyrazol-4-yl]-6-(1H-pyrazol-4-yl)-1H-indazole-3-carboxamide] | 6.5 nM | – | – |
| N#Cc1cccc(Cn2cc(NC(=O)c3n[nH]c4ccc(-c5cn[nH]c5)cc34)cn2)c1 [Example 81, N-(1-(3-Cyanobenzyl)-1H-pyrazol-4-yl)-5-(1H-pyrazol-4-yl)-1H-indazole-3-carboxamide] | – | 1 to 100 nM | – |
| N#Cc1cccc(Cn2cc(NC(=O)c3n[nH]c4cc(C5CCNCC5)ccc34)cn2)c1 [Example 179, N-[1-[(3-cyanophenyl)meth-yl]pyrazol-4-yl]-6-(4-piperidyl)-1H-indazole-3-carboxamide] | 154 nM | – | – |
| N#Cc1cccc(Cn2cc(NC(=O)c3n[nH]c4cc(-c5ccc(N)nc5)c(F)cc34)cn2)c1 [Example 152, 6-(6-amino-3-pyridyl)-N-[1-[(3-cyanophenyl)meth-yl]pyrazol-4-yl]-5-fluoro-1H-indazole-3-carboxamide] | 12.8 nM | – | – |
| Cn1cc(-c2ccc3c(C(=O)Nc4cnn(Cc5cccc(C#N)c5)c4)n[nH]c3c2)cn1 [Example 121, N-(1-(3-cyanobenzyl)-1H-pyrazol-4-yl)-6-(1-methyl-1H-pyrazol-4-yl)-1H-indazole-3-carboxamide] | – | 1 to 100 nM | – |
| CN(C)CCC(c1cccc(Cl)c1)n1cc(NC(=O)c2n[nH]c3cc(-c4cn[nH]c4)ccc23)cn1 (stereo not drawn) [Example 249, N-[1-[1-(3-chlorophenyl)-3-(dimethylami-no)propyl]pyrazol-4-yl]-6-(1H-pyrazol-4-yl)-1H-indazole-3-carboxamide] | 0.06 nM | – | – |
| N#Cc1cccc(Cn2cc(NC(=O)c3n[nH]c4ccc(NC5CCNC5)cc34)cn2)c1 (stereo not drawn) [Example 183, N-[1-[(3-cyanophenyl)meth-yl]pyrazol-4-yl]-5-(pyrrolidin-3-ylamino)-1H-indazole-3-carboxamide] | 7.52 nM | – | – |
| O=C(Nc1cnn(Cc2cccc(CNCC(F)F)c2)c1)c1n[nH]c2ccccc12 [Example 92, N-(1-(3-((2,2-difluoroethylamino)methyl)benzyl)-1H-pyrazol-4-yl)-1H-indazole-3-carboxamide] | – | 1 to 100 nM | – |
| CC[C@@H](c1ccccc1)n1cc(NC(=O)c2n[nH]c3cc(-c4cccnc4)ccc23)cn1 [Example 139, (S)—N-(1-(1-phenylpropyl)-1H-pyrazol-4-yl)-6-(pyridin-3-yl)-1H-indazole-3-carboxamide] | – | 1 to 100 nM | – |

| Compound | Ki (Table 1, Examples 141-279) | Ki [1] | Ki [2] |
| --- | --- | --- | --- |
| CCN(CC)CCn1cc(NC(=O)c2n[nH]c3cc(-c4cn[nH]c4)ccc23)cn1 [Example 171, N-[1-[2-(diethylamino)eth-yl]pyrazol-4-yl]-6-(1H-pyrazol-4-yl)-1H-indazole-3-carboxamide] | 7.99 nM | – | – |
| O=C(Nc1cnn(Cc2ccc(CNC3CCC3)cc2)c1)c1n[nH]c2ccccc12 [Example 107, N-(1-(4-((cyclobutylamino)methyl)benzyl)-1H-pyrazol-4-yl)-1H-indazole-3-carboxamide] | – | 1 to 100 nM | – |
| Cn1nccc1-c1ccc2c(C(=O)Nc3cnn(Cc4cccc(C#N)c4)c3)n[nH]c2c1 [Example 196, N-[1-[(3-cyanophenyl)meth-yl]pyrazol-4-yl]-6-(2-methylpyrazol-3-yl)-1H-indazole-3-carboxamide] | 354 nM | – | – |
| O=C(Nc1cnn(Cc2cccc(-c3ccccn3)c2)c1)c1n[nH]c2cc(-c3cn[nH]c3)ccc12 [Example 38, 6-(1H-Pyrazol-4-yl)-1H-indazole-3-carboxylic acid [1-(3-pyridin-2-yl-benzyl)-1H-pyrazol-4-yl]-amide] | – | 1 to 100 nM | – |
| COc1cncc(-c2ccc3c(C(=O)Nc4cnn(CC5CCCCC5)c4)n[nH]c3c2)c1 [Example 222, N-[1-(cyclohexylmeth-yl)pyrazol-4-yl]-6-(5-methoxy-3-pyridyl)-1H-indazole-3-carboxamide] | 75.3 nM | – | – |
| O=C(Nc1cnn(Cc2cccnc2)c1)c1n[nH]c2cc(-c3cn[nH]c3)ccc12 [Example 216, 6-(1H-pyrazol-4-yl)-N-[1-(3-pyridylmethyl)py-razol-4-yl]-1H-indazole-3-carboxamide] | 1.12 nM | – | – |
| O=C(Nc1cnn(Cc2cccnn2)c1)c1n[nH]c2cc(-c3cn[nH]c3)ccc12 [Example 225, 6-(1H-pyrazol-4-yl)-N-[1-(pyridazin-3-ylmethyl)pyrazol-4-yl]-1H-indazole-3-carboxamide] | 4.85 nM | – | – |
| CNCCC(c1ccccc1)n1cc(NC(=O)c2n[nH]c3ccccc23)cn1 (stereo not drawn) [Example 264, N-[1-[3-(methylamino)-1-phenyl-propyl]pyrazol-4-yl]-1H-indazole-3-carboxamide] | 55.5 nM | – | – |
| O=C(Nc1cnn(CC2CCC2)c1)c1n[nH]c2cc(-c3cn[nH]c3)ccc12 [Example 236, N-[1-(cyclobutylmeth-yl)pyrazol-4-yl]-6-(1H-pyrazol-4-yl)-1H-indazole-3-carboxamide] | 6.09 nM | – | – |
| CC(C)c1nc(Cn2cc(NC(=O)c3n[nH]c4cc(-c5cn[nH]c5)ccc34)cn2)cs1 [Example 21, 6-(1H-Pyrazol-4-yl)-1H-indazole-3-carboxylic acid [1-(2-isopropyl-thiazol-4-ylmethyl)-1H-pyrazol-4-yl]-amide] | – | 1 to 100 nM | – |
| N#Cc1cccc(Cn2cc(NC(=O)c3n[nH]c4cc(C5CNC5)ccc34)cn2)c1 [Example 182, 6-(azetidin-3-yl)-N-[1-[(3-cyanophenyl)meth-yl]pyrazol-4-yl]-1H-indazole-3-carboxamide] | 240 nM | – | – |
| CC[C@@H](c1cscn1)n1cc(NC(=O)c2n[nH]c3cc(-c4cn[nH]c4)ccc23)cn1 [Example 175, 6-(1H-pyrazol-4-yl)-N-[1-[(1S)-1-thiazol-4-ylpropyl]pyrazol-4-yl]-1H-indazole-3-carboxamide] | 0.7 nM | – | – |
| COc1cncc(-c2ccc3c(C(=O)Nc4cnn(C(CN(C)C)c5cccnc5)c4)n[nH]c3c2)c1 (stereo not drawn) [Example 233, N-[1-[2-(dimethylamino)-1-(3-pyridyl)ethyl]py-razol-4-yl]-6-(5-methoxy-3-pyridyl)-1H-indazole-3-carboxamide] | 51 nM | – | – |
| COc1cccc2[nH]nc(C(=O)Nc3cnn(Cc4cccc(C#N)c4)c3)c12 [Example 4, N-(1-(3-cyanobenzyl)-1H-pyrazol-4-yl)-4-methoxy-1H-indazole-3-carboxamide] | – | > 100 nM | 1300 nM |
| O=C(Nc1cnn(CC2CCOC2)c1)c1n[nH]c2cc(-c3cn[nH]c3)ccc12 (stereo not drawn) [Example 235, 6-(1H-pyrazol-4-yl)-N-[1-(tetrahydrofuran-3-ylmethyl)pyrazol-4-yl]-1H-indazole-3-carboxamide] | 4.64 nM | – | – |
| CN(C)Cc1ccc(Cn2cc(NC(=O)c3n[nH]c4ccccc34)cn2)cc1 [Example 115, N-(1-(4-((dimethylamino)methyl)benzyl)-1H-pyrazol-4-yl)-1H-indazole-3-carboxamide] | – | 1 to 100 nM | – |
| COc1cncc(-c2ccc3c(C(=O)Nc4cnn(Cc5ccccc5)c4)n[nH]c3c2)c1 [Example 85, N-(1-benzyl-1H-pyrazol-4-yl)-6-(5-methoxypyridin-3-yl)-1H-indazole-3-carboxamide] | – | 1 to 100 nM | – |
